Source: patent publication US20110039946A1, “METHOD OF IMPROVING ATOPIC DERMATOLOGICAL DISEASES, IN WHICH A COMPOSITION COMPRISING MAGNOLOL, HONOKIOL OR A COMBINATION THEREOF IS ADMINISTERED TO A PATIENT WITH ATOPIC DERMATOLOGICAL DISEASES” (BIOSPECTRUM, INC., priority 2007, published 2011)
Like-named read-outs stand apart in the source and are kept apart here.

How the values were obtained:
Staphylococcus aureus [1] = assay: filter-paper disk agar diffusion (Kirby-Bauer) antibacterial activity; format: cell-based; details: S. aureus; for Diameter of clear zone: filter disk 10 mm
Experimental: The standardized filter-paper disk agar diffusion method was used to determine the antibacterial activity of magnolol and honokiol against Staphylococcus aureus. This method was also well-known as Kirby-Bauer method, and has been widely used to determine the antibacterial activity (see, European Journal of Pharmacology, Junho Park et al, 2004, 496(1-3), 189-195). Briefly, Staphylococcus aureus cells were incubated with brain heart infusion (BHI) broth at 37° C. under anaerobic conditions until they reach the stationary phase. Approximately 1×10^6 bacteria cells were mixed with 7 ml of BHI agar medium containing 0.8% phytoagar and then, poured on the agar plate containing 1.5% phytoagar. The filter-paper discs (10 mm diameter) were treated with magnolol and honokiol at respective test concentrations, and then placed on the BHI agar plate inoculated with the test bacteria. The plate was incubated at 37° C. for 24 hours under anaerobic conditions, and then the antibacterial activity was determined by measuring the size of clear zone (growth inhibition halo) around the disk. The size of clear zone has the functional relation with the logarithmic value of magnolol or honokiol concentration, from which the standard calibration curve could be derived (FIG. 1). The unknown concentration of the test sample can be determined from this standard calibration curve. […] The antibacterial activity was remarkable at 6.25 μg/disk (0.39 mM) for honokiol and 12.5 μg/disk (0.78 mM) for magnolol (Table 1).

[2] = tested on: patients suffering from mild or moderate atopic dermatitis; assay: clinical evaluation of skin topical preparations in atopic dermatitis (EASI, pruritus); format: in vivo, human; details: applied as 1% cream; 2 and 4 weeks
Experimental: The cosmetic compositions for atopy containing magnolol, honokiol and pimecrolimus, respectively were prepared with the contents of components as listed in the following Table 3, according to the conventional method. In the following Table 3, the control group is for the skin topical preparation with no antibacterial and anti-inflammatory substance, and the test groups 1, 2 and 3 are for the cosmetic compositions for skin topical use to treat atopy containing magnolol, honokiol and pimecrolimus, respectively.
To prepare the skin topical preparation purified water, glycerin and butylene glycol were mixed and dissolved at 70° C. (aqueous part), and the remaining components except for the three components and trimethanolamine were dissolved at 70° C. (oil part). The oil part was added to the aqueous part and stirred with a homomixer (from Tokushu Kika Kogyo, Co., Ltd. In Japan) to induce the first emulsification to which trimethanolamine was finally added. […]
1) The symptoms and extent of atopic dermatitis were objectively determined using EASI (Eczema Area Severity Index) as follows, before treatment and 2 and 4 weeks after treatment. […]
EASI score and pruritus score were compared and evaluated by applying Kruskall-Wallis one-way ANOVA method as the basic statistical method before treatment and 2 and 4 weeks after treatment. […]

TNF-alpha = TNF-alpha production induced by heat-inactivated Staphylococcus aureus in THP-1 cells (ELISA); format: cell-based, human; details: heat-inactivated S. aureus 100 μg/ml, 48 hours
Experimental: In addition, the experiment was conducted to identify the synergistic anti-inflammatory effect when magnolol and honokiol are combined in a certain ratio. The efficacy to inhibit the production of TNF-alpha was examined in cases where the combined ratio of magnolol and honokiol is 1 (7.5 μM):1 (7.5 μM), 1 (5 μM):2 (10 μM), and 2(10 μM):1 (5 μM) or in case of treating with 15 μM of magnolol alone or 15 μM of honokiol alone.

Staphylococcus aureus [3] = assay: Minimum Bacteriocidal Concentration / kinetics of bacterial killing; format: cell-based
Experimental: The inhibition of bacterial growth with a certain substance is the result obtained by inhibiting the proliferation of respective cells or killing the cells. […] The following experiment was conducted to determine the Minimum Bacteriocidal Concentration (MBC). First, the same procedures as the determination of MIC were conducted in the liquid culture medium, and then a portion of the culture medium in the test tube in which no proliferation was shown was taken, diluted to remove magnolol and honokiol therefrom, and then incubated on the solid culture medium and observed for the colony formation after 24 hours. At this time, MBC means the minimum value of magnolol or honokiol concentration in the original culture solution in the plate medium on which no colony was produced. To determine MBC of magnolol and honokiol Staphylococcus aureus was used, and magnolol or honokiol was applied at the concentration one, five and 10 times as high as MIC concentration thereof to determine the kinetics of bacterial killing. The survival rate of microbes was determined within 2 hours.

interleukin-8 = interleukin-8 production induced by heat-inactivated Staphylococcus aureus in THP-1 cells (ELISA); format: cell-based, human; details: heat-inactivated S. aureus 100 μg/ml, 48 hours
Experimental: In general, the inflammatory response generated by bacteria or bacterial components is mediated by proinflammatory cytokines. To determine whether magnolol or honokiol can inhibit the inflammatory response generated by Staphylococcus aureus ELISA for interleukin-8 and TNF-alpha was conducted. For this purpose, THP-1 cell line as human monocyte cell line was used. 1×10^6 THP-1 cells were incubated for 14 hours under serum-free conditions, and then treated with heat-inactivated Staphylococcus aureus 100 μg/ml alone or simultaneously with magnolol and honokiol, respectively, which was then incubated for 48 hours. The amounts of interleukin-8 and TNF-alpha secreted into cell culture medium were measured by means of ELISA kit (Genzyme, Minneapolis, Minn.).

Staphylococcus aureus [4] = assay: Minimum Inhibitory Concentration, two-fold serial dilution; format: cell-based; details: 24 h, read-out: MIC of agents
Experimental: The test was conducted to determine the Minimum Inhibitory Concentrations (MIC) of magnolol and honokiol. Staphylococcus aureus incubated for 24 hours was introduced into 3 ml of brain heart infusion broth, and at the same time, magnolol and honokiol were respectively added thereto, and then incubated for 24 hours at 37° C. under anaerobic conditions. To determine MICs of honokiol and magnolol the two-fold serial dilution method was used. As used herein, MIC is defined as the minimum concentration at which the growth of microorganism is inhibited. As presented in Table 2, it could be confirmed that MICs of magnolol and honokiol for Staphylococcus aureus were 6 μg/ml and 2 μg/ml, respectively. That is, it can be seen that the antibacterial activity of honokiol is higher than that of magnolol.

Compound | Diameter of clear zone (Staphylococcus aureus [1]; 6.25 mg/disk (footnote a)) | Diameter of clear zone (Staphylococcus aureus [1]; 12.5 mg/disk (footnote a)) | Diameter of clear zone (Staphylococcus aureus [1]; 25 mg/disk (footnote a)) | Diameter of clear zone (Staphylococcus aureus [1]; 50 mg/disk (footnote a)) | pruritus accompanied by atopic dermatitis (visual analog scale) [2] | amount at which the antibacterial activity was remarkable (Staphylococcus aureus [1]; disk diffusion) [μg/disk] | concentration at which the antibacterial activity was remarkable (Staphylococcus aureus [1]; disk diffusion, printed in brackets after μg/disk) [mM] | production of TNF-alpha induced by Staphylococcus aureus (TNF-alpha) | concentration at which Staphylococcus aureus was completely exterminated within 10 minutes (Staphylococcus aureus [3]) [µg/mL] | concentration at which Staphylococcus aureus was completely exterminated within 10 minutes (Staphylococcus aureus [3]; printed in brackets after μg/ml) [µM] | production of interleukin-8 induced by Staphylococcus aureus (interleukin-8) | MIC (Staphylococcus aureus [4]) [µg/mL]
CC[C@H]1OC(=O)[C@H](C)[C@@H](O[C@H]2C[C@@](C)(OC)[C@@H](O)[C@H](C)O2)[C@H](C)[C@@H](O[C@@H]2O[C@H](C)C[C@H](N(C)C)[C@H]2O)[C@](C)(O)C[C@@H](C)C(=O)[C@H](C)[C@@H](O)[C@]1(C)O [Erythromycin, reference compound] | 35 ± 2.2^c mm | 42 ± 3.8^c mm | 45 ± 2.5^c mm | 48 ± 5^c mm | – | – | – | – | – | – | – | –
C=CCc1ccc(O)c(-c2cc(CC=C)ccc2O)c1 [Magnolol, 5,5′-di-2-propenyl-1,1′-biphenyl-2,2′-diol] | – | 11 ± 0.4^c mm | 15 ± 0.2^c mm | 18 ± 0.2^c mm | significantly improved | 12.5 | 0.78 | reduced | 45 | 169.2 | reduced | 6
